Legend:
Adenosine receptor A2a [1] = target: T1, Adenosine receptor A2a (Homo sapiens, UniProt P29274); assay: Inhibition of [3H]CGS21680 binding to human adenosine A2A receptor expressed in HEK293 cells at 10 uM after 60 mins by liquid scintillation counting; type: cell-based
[2] = target: T2, Adenosine receptor A3 (Homo sapiens) (UniProt P0DMS8); assay: Agonist activity at human recombinant adenosine A3 receptor expressed in CHO cells assessed as inhibition of forskolin-stimulated cAMP production at 10 uM treated 45 mins before forskolin challenge measured after 15 mins by radioimmunoassay relative to NECA; type: functional, cell-based
T2 sequence (whole entry): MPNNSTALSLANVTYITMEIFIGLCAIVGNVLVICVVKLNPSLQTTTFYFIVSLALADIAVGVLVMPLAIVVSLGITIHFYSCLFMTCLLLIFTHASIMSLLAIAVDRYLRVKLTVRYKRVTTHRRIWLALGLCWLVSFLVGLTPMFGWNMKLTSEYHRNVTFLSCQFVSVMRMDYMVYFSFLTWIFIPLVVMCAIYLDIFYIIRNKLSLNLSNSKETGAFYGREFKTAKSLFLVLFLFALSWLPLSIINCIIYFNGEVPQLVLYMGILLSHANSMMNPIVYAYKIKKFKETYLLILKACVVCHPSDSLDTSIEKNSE

Adenosine receptor A3 [3] = target: T3, Adenosine receptor A3 (Homo sapiens, UniProt P0DMS8); assay: Displacement of [125I]AB-MECA from human recombinant adenosine A3 receptor expressed in CHO cells after 60 mins by gamma counting
T3 sequence (P0DMS8 whole entry): T2 sequence (whole entry)

[4] = target: T4, Adenosine receptor A1 (Homo sapiens) (UniProt P30542); assay: Inhibition of [3H]NECA binding to human recombinant adenosine A1 receptor expressed in CHO cells at 10 uM after 60 mins by liquid scintillation counting; type: cell-based
T4 sequence (whole entry): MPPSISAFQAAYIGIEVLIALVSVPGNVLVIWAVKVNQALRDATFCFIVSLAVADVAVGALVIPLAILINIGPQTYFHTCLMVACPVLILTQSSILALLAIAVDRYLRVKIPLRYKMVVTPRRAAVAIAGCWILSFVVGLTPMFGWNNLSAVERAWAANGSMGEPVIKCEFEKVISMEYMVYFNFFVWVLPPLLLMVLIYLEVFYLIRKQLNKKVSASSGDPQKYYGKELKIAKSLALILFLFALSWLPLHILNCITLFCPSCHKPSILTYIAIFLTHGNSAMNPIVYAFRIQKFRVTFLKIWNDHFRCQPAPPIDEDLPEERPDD

Adenosine receptor A2a [5] = target: T1, Adenosine receptor A2a; assay: Displacement of [3H]CGS21680 from human adenosine A2A receptor expressed in HEK293 cells after 60 mins by liquid scintillation counting; type: cell-based
Adenosine receptor A1 [6] = target: T5, Adenosine receptor A1 (Homo sapiens, UniProt P30542); assay: Displacement of [3H]CCPA from human recombinant adenosine A1 receptor expressed in CHO cells after 60 mins by liquid scintillation counting; type: cell-based
T5 sequence (P30542 whole entry): T4 sequence (whole entry)

Adenosine receptor A3 [7] = target: T6, Adenosine receptor A3 (Rattus norvegicus, UniProt P28647); assay: Binding affinity to rat adenosine A3 receptor expressed in CHO cells; type: cell-based
T6 sequence (P28647 whole entry): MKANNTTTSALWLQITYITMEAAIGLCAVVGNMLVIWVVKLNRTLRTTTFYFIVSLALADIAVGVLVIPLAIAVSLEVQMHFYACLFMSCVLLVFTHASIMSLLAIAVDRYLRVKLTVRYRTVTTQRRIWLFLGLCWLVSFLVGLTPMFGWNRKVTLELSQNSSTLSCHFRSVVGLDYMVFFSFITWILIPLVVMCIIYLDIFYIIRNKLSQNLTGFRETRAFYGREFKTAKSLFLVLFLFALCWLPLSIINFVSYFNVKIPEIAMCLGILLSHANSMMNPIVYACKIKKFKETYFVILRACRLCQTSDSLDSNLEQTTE

Homo sapiens = species on record: Homo sapiens; assay: Selectivity for human recombinant adenosine A3 receptor over human recombinant adenosine A2A receptor
[8] = target: Adenosine receptors; A1 & A3 (Homo sapiens) (UniProt P30542+P0DMS8); assay: Selectivity for human recombinant adenosine A3 receptor over human recombinant adenosine A1 receptor
[9] = target: T2, Adenosine receptor A3 (Homo sapiens); conditions: CHO, 10 uM
Description: Inhibition of [125I]AB-MECA binding to human recombinant adenosine A3 receptor expressed in CHO cells at 10 uM after 60 mins by liquid scintillation counting

[10] = target: T4, Adenosine receptor A1 (Homo sapiens); assay: Inhibition of [3H]CCPA binding to human recombinant adenosine A1 receptor expressed in CHO cells at 10 uM after 60 mins by liquid scintillation counting; type: cell-based
Adenosine receptor A1 [11] = target: T5, Adenosine receptor A1; assay: Displacement of [3H]NECA from human recombinant adenosine A1 receptor expressed in CHO cells after 60 mins by liquid scintillation counting; type: cell-based
Adenosine receptor A3 [12] = target: T3, Adenosine receptor A3; assay: Agonist activity at human recombinant adenosine A3 receptor expressed in CHO cells assessed as inhibition of forskolin-stimulated cAMP production treated 45 mins before forskolin challenge measured after 15 mins by radioimmunoassay relative to NECA; type: functional, cell-based

T1 sequence (P29274 whole entry): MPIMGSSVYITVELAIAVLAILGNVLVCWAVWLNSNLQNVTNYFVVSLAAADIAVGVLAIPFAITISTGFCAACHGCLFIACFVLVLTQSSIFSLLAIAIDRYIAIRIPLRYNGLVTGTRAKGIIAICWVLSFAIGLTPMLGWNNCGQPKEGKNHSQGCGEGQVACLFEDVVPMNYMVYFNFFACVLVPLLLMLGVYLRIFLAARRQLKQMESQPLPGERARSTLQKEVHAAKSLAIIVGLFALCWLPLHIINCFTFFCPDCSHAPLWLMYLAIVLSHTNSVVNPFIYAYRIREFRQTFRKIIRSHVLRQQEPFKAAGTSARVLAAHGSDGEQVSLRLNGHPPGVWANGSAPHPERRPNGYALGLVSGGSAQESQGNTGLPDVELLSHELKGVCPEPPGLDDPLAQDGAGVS

Compound	inhibition (Adenosine receptor A2a [1])	Efficacy [2]	Ki (Adenosine receptor A3 [3])	inhibition [4]	Ki (Adenosine receptor A2a [5])	other results
CNC(=O)[C@]12C[C@H]1[C@@H](n1cnc3c(NCc4cccc(Cl)c4)nc(C#CCCCC(=O)O)nc31)[C@@H](O)[C@H]2O	9%	–	–	–	–	–
CNC(=O)[C@]12C[C@@H]1[C@@H](n1cnc3c(NCc4cccc(Cl)c4)nc(C#CCCC(=O)OC)nc31)[C@H](O)[C@@H]2O	43%	90%	0.0055 µM	41%	–	–
CNC(=O)[C@]12C[C@@H]1[C@@H](n1cnc3c(NCc4cccc(Cl)c4)nc(Cl)nc31)[C@H](O)[C@@H]2O	–	–	–	–	2.3 µM	Ki (Adenosine receptor A1 [6]): 0.26 µM
CNC(=O)[C@]12C[C@@H]1[C@@H](n1cnc3c(NCc4cccc(Cl)c4)nc(C#CCCCCC(=O)NCCN)nc31)[C@H](O)[C@@H]2O	–	100%	0.0034 µM	47%	0.277 µM	–
CNC(=O)[C@]12C[C@@H]1[C@@H](n1cnc3c(NC4CCCC4)nc(Cl)nc31)[C@H](O)[C@@H]2O	–	101%	–	–	–	–
CNC(=O)C12C[C@@H]1[C@@H](n1cnc3c(NCc4cccc(Cl)c4)nc(C#CCCCC(=O)O)nc31)[C@H](O)[C@@H]2O (single isomer, unassigned)	–	–	–	–	–	Ki (Adenosine receptor A3 [7]): 0.0665 µM
NCCNC(=O)CCC#Cc1nc(NCc2cccc(Cl)c2)c2ncn([C@H]3[C@H](O)[C@H](O)[C@@H]4C[C@@H]43)c2n1	35%	0.9%	0.404 µM	15%	–	fold change (FC) (Homo sapiens): > 20; fold change (FC) [8]: > 20
CNC(=O)[C@]12C[C@@H]1[C@@H](n1cnc3c(NCc4cccc(Cl)c4)nc(C#CCCCCC(=O)O)nc31)[C@H](O)[C@@H]2O	38%	74.4%	0.0124 µM	11%	–	–
CNC(=O)[C@]12C[C@@H]1[C@@H](n1cnc3c(NCc4cccc(Cl)c4)nc(C#CCCCCC(=O)OC)nc31)[C@H](O)[C@@H]2O	–	85%	0.0111 µM	20%	3.54 µM	–
CNC(=O)[C@]12C[C@@H]1[C@@H](n1cnc3c(NCc4cccc(Cl)c4)nc(C#CCCC(=O)NCCNC(=O)CCCCCNC(=O)CCCC[C@H]4SC[C@H]5NC(=O)N[C@H]54)nc31)[C@H](O)[C@@H]2O	47%	107%	0.0577 µM	12%	–	fold change (FC) (Homo sapiens): 66; fold change (FC) [8]: > 170
CNC(=O)[C@]12C[C@@H]1[C@@H](n1cnc3c(NCc4cccc(Cl)c4)nc(C#CCCC(=O)O)nc31)[C@H](O)[C@@H]2O	24%	106%	0.0611 µM	17%	–	–
CNC(=O)[C@]12C[C@H]1[C@@H](n1cnc3c(NCc4cccc(Cl)c4)nc(C#CCCC(=O)NCCN)nc31)[C@@H](O)[C@H]2O	8%	25.6%	–	–	–	inhibition [9]: 30%; inhibition [10]: 33%
CNC(=O)[C@]12C[C@H]1[C@@H](n1cnc3c(NCc4cccc(Cl)c4)nc(C#CCCCCC(=O)NCCN)nc31)[C@@H](O)[C@H]2O	5%	52%	4.63 µM	–	–	inhibition [10]: 36%
O[C@@H]1[C@H](O)[C@@H]2C[C@@H]2[C@H]1n1cnc2c(NCc3cccc(I)c3)ncnc21	–	80.8%	–	–	–	Ki (Adenosine receptor A1 [11]): 0.839 µM
CNC(=O)[C@]12C[C@@H]1[C@@H](n1cnc3c(NCc4cccc(Cl)c4)nc(C#CCCC(=O)NCCN)nc31)[C@H](O)[C@@H]2O	–	96.9%	0.0025 µM	–	0.55 µM	Ki (Adenosine receptor A1 [11]): 2.32 µM
O[C@@H]1[C@H](O)[C@@H]2C[C@@H]2[C@H]1n1cnc2c(NC3CCCC3)nc(Cl)nc21	–	95.1%	0.12 µM	–	1.64 µM	Ki (Adenosine receptor A1 [11]): 0.109 µM
CNC(=O)[C@]12C[C@@H]1[C@@H](n1cnc3c(NCc4cccc(Cl)c4)nc(C#CCCC(=O)NCCCCN)nc31)[C@H](O)[C@@H]2O	–	102%	0.0021 µM	30%	0.766 µM	Ki (Adenosine receptor A3 [7]): 0.00868 µM; fold change (FC) (Homo sapiens): > 5000; fold change (FC) [8]: 360
O[C@@H]1[C@H](O)[C@@H]2C[C@@H]2[C@H]1n1cnc2c(NCc3cccc(I)c3)nc(Cl)nc21	–	44%	–	–	–	EC50 (Adenosine receptor A3 [12]): 0.012 µM
O[C@@H]1[C@H](O)[C@@H]2C[C@@H]2[C@H]1n1cnc2c(NCc3cccc(Cl)c3)ncnc21	–	58.3%	0.0049 µM	–	4.52 µM	Ki (Adenosine receptor A3 [7]): 0.0203 µM; Ki (Adenosine receptor A1 [11]): 1.6 µM
CNC(=O)[C@]12C[C@@H]1[C@@H](n1cnc3c(NCc4cccc(Cl)c4)nc(C#CCCC(=O)NCCNCCN)nc31)[C@H](O)[C@@H]2O	–	87.6%	0.0154 µM	33%	0.89 µM	–
CNC(=O)[C@]12C[C@@H]1[C@@H](n1cnc3c(NCc4cccc(Cl)c4)nc(C#CCCCC(=O)OC)nc31)[C@H](O)[C@@H]2O	49%	–	–	–	–	Ki (Adenosine receptor A1 [6]): 0.482 µM
O[C@@H]1[C@H](O)[C@@H]2C[C@@H]2[C@H]1n1cnc2c(NCc3cccc(I)c3)nc(F)nc21	–	19%	0.0107 µM	–	4 µM	Ki (Adenosine receptor A1 [11]): 0.513 µM
CNC(=O)[C@]12C[C@@H]1[C@@H](n1cnc3c(NCc4cccc(I)c4)ncnc31)[C@H](O)[C@@H]2O	–	100%	0.0024 µM	–	6.2 µM	Ki (Adenosine receptor A1 [6]): 0.7 µM
CNC(=O)[C@]12C[C@@H]1[C@@H](n1cnc3c(NCc4cccc(Cl)c4)nc(C#CCCCC(=O)NCCN)nc31)[C@H](O)[C@@H]2O	81%	–	0.00217 µM	–	–	Ki (Adenosine receptor A1 [6]): 0.454 µM
CNC(=O)[C@]12C[C@@H]1[C@@H](n1cnc3c(NCc4cccc(Cl)c4)nc(C#CCCC(=O)NCCCN)nc31)[C@H](O)[C@@H]2O	–	97.9%	0.0031 µM	31%	0.979 µM	–
CNC(=O)[C@]12C[C@@H]1[C@@H](n1cnc3c(NCc4cccc(Cl)c4)nc(C#CCCC(=O)NCCNC(=O)CCCC[C@H]4SC[C@H]5NC(=O)N[C@H]54)nc31)[C@H](O)[C@@H]2O	51%	84.5%	0.0364 µM	1%	–	IC50 (Adenosine receptor A3 [12]): 0.0025 µM
